Columns and labels:
HeLa cells [1] = assay: Luciferase Protein Expression Assay in HeLa Cells; type: cell-based, Human; conditions: LNPs encapsulating Luciferase mRNA, 25 ng per well, N=4 wells; 5 h serum-free then 24 h; ONE-Glo
Method in brief: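 Luminescence output, average RLU across N=4 wells, was measured with ONE-Glo after cell lysis. Before that, HeLa cells were exposed to 25 ng/well luciferase-mRNA nanoparticles (PBS control) for 5 h serum-free, then cultured overnight (24 h) in complete MEM.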

[2] = Encapsulation of mRNA nanoparticles with lipid amines using Ribogreen assay; type: physicochemical
Method in brief: (§1)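 DLS gave size and PDI, and Ribogreen gave encapsulation, for luciferase- or CFTR-mRNA nanoparticles (N:P 4.93). Particles came from IL1/DSPC/cholesterol/PEG-DMG-2K mixed at pH 4, mRNA-loaded, neutralized with TRIS pH 8.12, and then treated with lipid amine SA50 in pH 7.5 buffer.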

HeLa cells [3] = assay: CFTR Protein Expression Assay in HeLa Cells; type: cell-based, Human; conditions: LNPs encapsulating CFTR mRNA, N=4 wells; 5 h serum-free then 24 h; immunofluorescence vs PBS control
Method in brief: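 Readout is fold-change in per-cell CFTR immunofluorescence intensity (488 nm, confocal imaging) relative to PBS-treated cells, from 4 replicate wells. LNPs encapsulating CFTR mRNA were applied serum-free for 5 h, followed by 24 h in complete medium before PFA fixation.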

[4] = Diameter and PDI from DLS measurements of mRNA nanoparticles with lipid amines; type: physicochemical
Method in brief: as §1

[5] = CFTR mRNA nanoparticle with lipid amine
[6] = Luciferase mRNA nanoparticle modified with lipid amine

Row | Structure (SMILES) | Average Relative Light Units ± Standard Deviation (HeLa cells [1]) [Relative Light Units] | % Encapsulation (Ribogreen) [2, 5] [%] | % Encapsulation (Ribogreen) [2, 6] [%] | Average fold-change in CFTR signal intensity per cell compared to buffer control ± standard deviation (HeLa cells [3]) [fold-change] | Diameter (nm) [4, 5] [nm] | PDI [4, 5] | Diameter (nm) [4, 6] [nm] | PDI [4, 6]
1 | CCC(N)CCNCCCCN(CCC(N)CC)C(=O)O[C@H]1CC[C@@]2(C)C(=CC[C@H]3[C@@H]4CC[C@H]([C@H](C)CCCC(C)C)[C@@]4(C)CC[C@@H]32)C1.Cl.Cl.Cl (stereo partly drawn) [SA127, (3S,8S,9S,10R,13R,14S,17R)-10,13-dimethyl-17-((R)-6-methylheptan-2-yl)-2,3,4,7,8,9,10,11,12,13,14,15,16,17-tetradecahydro-1H-cyclopenta[a]phenanthren-3-yl (3-aminopentyl)(4-((3-aminopentyl)amino)butyl)carbamate trihydrochloride] | 41246.9 ± 5672.4 | 99.5 | 99.7 | 20.1 ± 1.9 | 74.1 | 0.12 | 74 | 0.17
2 | CC(C)CCC[C@@H](C)[C@H]1CC[C@H]2[C@@H]3CC=C4C[C@@H](OC(=O)N(CCCCNCC5(CN)CC5)CC5(CN)CC5)CC[C@]4(C)[C@H]3CC[C@]12C.Cl.Cl.Cl [SA128, (3S,8S,9S,10R,13R,14S,17R)-10,13-dimethyl-17-((R)-6-methylheptan-2-yl)-2,3,4,7,8,9,10,11,12,13,14,15,16,17-tetradecahydro-1H-cyclopenta[a]phenanthren-3-yl ((1-(aminomethyl)cyclopropyl)methyl)(4-(((1-(aminomethyl)cyclopropyl)methyl)amino)butyl)carbamate trihydrochloride] | 39386.4 ± 5261.4 | 99.4 | 99.4 | 19.9 ± 0.4 | 74.5 | 0.13 | 75 | 0.16
3 | CC(C)CCC[C@@H](C)[C@H]1CC[C@H]2[C@@H]3CC=C4C[C@@H](OC(=O)CN(CCCCCCCCN)C(=O)[C@@H](N)CCCN)CC[C@]4(C)[C@H]3CC[C@]12C.Cl.Cl.Cl [SA129, (3S,8S,9S,10R,13R,14S,17R)-10,13-dimethyl-17-((R)-6-methylheptan-2-yl)-2,3,4,7,8,9,10,11,12,13,14,15,16,17-tetradecahydro-1H-cyclopenta[a]phenanthren-3-yl N-(8-aminooctyl)-N-((S)-2,5-diaminopentanoyl)glycinate trihydrochloride] | 144.8 ± 21.6 | 96.2 | 99.5 | 1.0 ± 0 | 81.6 | 0.12 | 70 | 0.16
4 | CC(C)CCC[C@@H](C)[C@H]1CC[C@H]2[C@@H]3CC=C4C[C@@H](OC(=O)[C@H](CCCCN)NCCCCCCN)CC[C@]4(C)[C@H]3CC[C@]12C.Cl.Cl.Cl [SA131, (3S,8S,9S,10R,13R,14S,17R)-10,13-dimethyl-17-((R)-6-methylheptan-2-yl)-2,3,4,7,8,9,10,11,12,13,14,15,16,17-tetradecahydro-1H-cyclopenta[a]phenanthren-3-yl (6-aminohexyl)-L-lysinate trihydrochloride] | 40915.5 ± 4983.3 | 98.6 | 99.6 | 10.8 ± 0.5 | 83.8 | 0.14 | 72 | 0.12
5 | CC(C)CCC[C@@H](C)[C@H]1CC[C@H]2[C@@H]3CC=C4C[C@@H](OC(=O)[C@H](CCCN)NCCCCCCN)CC[C@]4(C)[C@H]3CC[C@]12C.Cl.Cl.Cl [SA132, (3S,8S,9S,10R,13R,14S,17R)-10,13-dimethyl-17-((R)-6-methylheptan-2-yl)-2,3,4,7,8,9,10,11,12,13,14,15,16,17-tetradecahydro-1H-cyclopenta[a]phenanthren-3-yl (S)-5-amino-2-((6-aminohexyl)amino)pentanoate trihydrochloride] | 131.6 ± 15.5 | 96.8 | 99.3 | 1.6 ± 0.1 | 84.2 | 0.15 | 81 | 0.41
6 | CCC(N)(CC)CCNCCCCN(CCC(N)(CC)CC)C(=O)O[C@H]1CC[C@@]2(C)C(=CC[C@H]3[C@@H]4CC[C@H]([C@H](C)CCCC(C)C)[C@@]4(C)CC[C@@H]32)C1.Cl.Cl.Cl [SA133, (3S,8S,9S,10R,13R,14S,17R)-10,13-dimethyl-17-((R)-6-methylheptan-2-yl)-2,3,4,7,8,9,10,11,12,13,14,15,16,17-tetradecahydro-1H-cyclopenta[a]phenanthren-3-yl (3-amino-3-ethylpentyl)(4-((3-amino-3-ethylpentyl)amino)butyl)carbamate trihydrochloride] | 26696.2 ± 5831.4 | 99.4 | 99.0 | 18.5 ± 0.8 | 73.5 | 0.11 | 73 | 0.17
7 | CC(C)CCC[C@@H](C)[C@H]1CC[C@H]2[C@@H]3CC=C4C[C@@H](OC(=O)CCCC(=O)N(CCCN)CCCCCCCCN)CC[C@]4(C)[C@H]3CC[C@]12C.Cl.Cl [SA134, (3S,8S,9S,10R,13R,14S,17R)-10,13-dimethyl-17-((R)-6-methylheptan-2-yl)-2,3,4,7,8,9,10,11,12,13,14,15,16,17-tetradecahydro-1H-cyclopenta[a]phenanthren-3-yl 5-((8-aminooctyl)(3-aminopropyl)amino)-5-oxopentanoate dihydrochloride] | 29194.3 ± 6336.9 | 98.7 | 99.5 | 17.7 ± 0.9 | 74.1 | 0.10 | 72 | 0.13
8 | CC[C@H](CC[C@@H](C)[C@H]1CC[C@H]2[C@@H]3CC=C4C[C@@H](OC(=O)CCCC(=O)N(CCCN)CCCCCCCCN)CC[C@]4(C)[C@H]3CC[C@]12C)C(C)C.Cl.Cl [SA135, (3S,8S,9S,10R,13R,14S,17R)-17-((2R,5R)-5-ethyl-6-methylheptan-2-yl)-10,13-dimethyl-2,3,4,7,8,9,10,11,12,13,14,15,16,17-tetradecahydro-1H-cyclopenta[a]phenanthren-3-yl 5-((8-aminooctyl)(3-aminopropyl)amino)-5-oxopentanoate dihydrochloride] | 27499.8 ± 7269.5 | 98.0 | 99.3 | 16.6 ± 1.5 | 73.5 | 0.11 | 71 | 0.12
9 | CC[C@H](CC[C@@H](C)[C@H]1CC[C@H]2[C@@H]3CC=C4C[C@@H](OC(=O)CCCC(=O)N(CCCCNCCC(C)N)CCC(C)N)CC[C@]4(C)[C@H]3CC[C@]12C)C(C)C.Cl.Cl.Cl (stereo partly drawn) [SA136, (3S,8S,9S,10R,13R,14S,17R)-17-((2R,5R)-5-ethyl-6-methylheptan-2-yl)-10,13-dimethyl-2,3,4,7,8,9,10,11,12,13,14,15,16,17-tetradecahydro-1H-cyclopenta[a]phenanthren-3-yl 5-((3-aminobutyl)(4-((3-aminobutyl)amino)butyl)amino)-5-oxopentanoate trihydrochloride] | 16245.8 ± 6554.6 | 97.7 | 99.7 | 15.8 ± 1.4 | 76.9 | 0.13 | 75 | 0.16

From US20260109732A1, “LIPID AMINES” (ModernaTX, Inc., priority 2021, published 2026)
